Measurements reported in PubChem BioAssay (NCI).
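GI50 is the concentration that inhibits growth by half. TGI is the concentration that stops growth completely.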

Experiments:
Assay in all cases: growth of human tumour cells (NCI), 384-well format
[1] = test system: SN12C renal
[2] = test system: OVCAR-3 ovarian
[3] = test system: SF-539 CNS
[4] = test system: HCC-2998 colon
[5] = test system: DU-145 prostate
[6] = test system: MOLT-4 leukemia
[7] = test system: HOP-92 NSCLC
[8] = test system: EKVX NSCLC
[9] = test system: HOP-62 NSCLC
[10] = test system: OVCAR-4 ovarian
[11] = test system: UACC-62 melanoma
[12] = test system: BT-549 breast
[13] = test system: NCI-H522 lung
[14] = test system: KM12 colon
[15] = test system: OVCAR-5 ovarian
[16] = test system: MDA-MB-231 breast
[17] = test system: SNB-75 CNS
[18] = test system: MCF7 breast
[19] = test system: UO-31 renal
[20] = test system: K-562 leukemia
[21] = test system: OVCAR-8 ovarian
[22] = test system: SK-MEL-28 melanoma
[23] = test system: MALME-3M melanoma
[24] = test system: NCI-H23 lung
[25] = test system: NCI-H322M lung
[26] = test system: SF-295 CNS
[27] = test system: HCT-15 colon
[28] = test system: TK-10 renal
[29] = test system: U251 glioblastoma
[30] = test system: SNB-19 CNS
[31] = test system: HT29 colon
[32] = test system: SK-MEL-5 melanoma
[33] = test system: CCRF-CEM leukemia
[34] = test system: T-47D breast
[35] = test system: HS 578T breast
[36] = test system: LOX IMVI melanoma
[37] = test system: MDA-MB-468 breast
[38] = test system: A498 renal
[39] = test system: COLO 205 colon
[40] = test system: MDA-MB-435 melanoma
[41] = test system: IGROV1 ovarian
[42] = test system: 786-0 renal
[43] = test system: ACHN renal
[44] = test system: PC-3 prostate
[45] = test system: SF-268 CNS
[46] = test system: A549 NSCLC
[47] = test system: HL-60(TB) leukemia
[48] = test system: RPMI-8226 leukemia
[49] = test system: NCI-H226 lung
[50] = test system: NCI-H460 NSCLC
[51] = test system: SK-OV-3 ovarian
[52] = test system: NCI/ADR-RES ovarian
[53] = test system: SW-620 colon
[54] = test system: HCT-116 colon
[55] = test system: RXF 393 renal
[56] = test system: UACC-257 melanoma
[57] = test system: CAKI-1 renal
[58] = test system: M14 melanoma
[59] = test system: SK-MEL-2 melanoma

CCOC(=O)C(Cc1ccc(CCCC(=O)NCCC(=O)Nc2ccc3nc(C)sc3c2)cc1)C(=O)OCC was tested, and the GI50 [1] was 24.7 µM, the TGI [1] was 48.4 µM and the GI50 [2] was 21.9 µM. It also gave a TGI [2] of 40.4 µM, a GI50 [3] of 18.7 µM and a TGI [3] of 32.8 µM. The GI50 [4] was 10.2 µM, the TGI [4] was 35.6 µM and the GI50 [5] was 19.8 µM. It also gave a TGI [5] of 34.9 µM, a GI50 [6] of 13 µM and a TGI [6] of 25.7 µM. It also gave a GI50 [7] of 25.8 µM, a TGI [7] of 68.2 µM and a GI50 [8] of 27.7 µM. It also gave a TGI [8] of 69.6 µM, a GI50 [9] of 17.2 µM and a TGI [9] of 35.9 µM. For the same compound, the GI50 [10] was 32.5 µM, the TGI [10] was 72 µM and the GI50 [11] was 19.1 µM. It also gave a TGI [11] of 33.6 µM, a GI50 [12] of 19.2 µM and a TGI [12] of 33.8 µM. The GI50 [13] was 20.5 µM, the TGI [13] was 37.1 µM and the GI50 [14] was 18.8 µM. It also gave a TGI [14] of 37.3 µM, a GI50 [15] of over 100 µM and a TGI [15] of over 100 µM. The GI50 [16] was 21.1 µM, the TGI [16] was 48.1 µM and the GI50 [17] was 19.7 µM. For the same compound, the TGI [17] was 35.8 µM, the GI50 [18] was 16.7 µM and the TGI [18] was 32.5 µM. The GI50 [19] was 22.9 µM, the TGI [19] was 48.7 µM and the GI50 [20] was 14 µM. The TGI [20] was 33.6 µM, the GI50 [21] was 18.1 µM and the TGI [21] was 32 µM. For the same compound, the GI50 [22] was 26.6 µM, the TGI [22] was 51.7 µM and the GI50 [23] was 22.5 µM. For the same compound, the TGI [23] was 45.7 µM, the GI50 [24] was 19.7 µM and the TGI [24] was 37.2 µM. It also gave a GI50 [25] of 19.4 µM, a TGI [25] of 38.3 µM and a GI50 [26] of 35.4 µM. The TGI [26] was over 100 µM, the GI50 [27] was 23.1 µM and the TGI [27] was 47.9 µM. It also gave a GI50 [28] of 30.4 µM, a TGI [28] of 83.9 µM and a GI50 [29] of 37.6 µM. It also gave a TGI [29] of over 100 µM, a GI50 [30] of 63.1 µM and a TGI [30] of over 100 µM. The GI50 [31] was 21.3 µM, the TGI [31] was 42.5 µM and the GI50 [32] was 14.1 µM. The TGI [32] was 27.1 µM, the GI50 [33] was 17.5 µM and the TGI [33] was 31.4 µM. For the same compound, the GI50 [34] was 8.21 µM, the TGI [34] was 20.4 µM and the GI50 [35] was 19.8 µM. For the same compound, the TGI [35] was 34.5 µM, the GI50 [36] was 16.8 µM and the TGI [36] was 30.8 µM. For the same compound, the GI50 [37] was 12 µM, the TGI [37] was 25.6 µM and the GI50 [38] was 27.7 µM. For the same compound, the TGI [38] was 64.1 µM, the GI50 [39] was 21.1 µM and the TGI [39] was 40.3 µM. It also gave a GI50 [40] of 23.5 µM, a TGI [40] of 41.2 µM and a GI50 [41] of 26.2 µM. For the same compound, the TGI [41] was 51.9 µM, the GI50 [42] was 26.7 µM and the TGI [42] was 75 µM. It also gave a GI50 [43] of 18 µM, a TGI [43] of 31.9 µM and a GI50 [44] of 19.4 µM. It also gave a TGI [44] of 33.9 µM, a GI50 [45] of 17.7 µM and a TGI [45] of 38.3 µM. The GI50 [46] was 23.3 µM, the TGI [46] was 59.1 µM and the GI50 [47] was 23 µM. It also gave a TGI [47] of 37.6 µM, a GI50 [48] of 17.7 µM and a TGI [48] of 31.7 µM. It also gave a GI50 [49] of 17.1 µM, a TGI [49] of 32.1 µM and a GI50 [50] of 19.2 µM. It also gave a TGI [50] of 35.9 µM, a GI50 [51] of 22.6 µM and a TGI [51] of 46.8 µM. The GI50 [52] was 17.9 µM, the TGI [52] was 31.9 µM and the GI50 [53] was 55.2 µM. The TGI [53] was over 100 µM, the GI50 [54] was 25.9 µM and the TGI [54] was 62.8 µM. The GI50 [55] was 21.8 µM, the TGI [55] was 48.3 µM and the GI50 [56] was 19 µM. For the same compound, the TGI [56] was 33.1 µM, the GI50 [57] was 18.4 µM and the TGI [57] was 33.1 µM. It also gave a GI50 [58] of 19.3 µM and a TGI [58] of 37 µM.
COc1c(OC[C@H](O)CN2CCOCC2)ccc2c3n(c(=NC(=O)c4cccnc4C)nc12)CCN3 gave a GI50 [1] of over 100 µM, a TGI [1] of over 100 µM and a GI50 [2] of over 100 µM. The TGI [2] was over 100 µM, the GI50 [3] was over 100 µM and the TGI [3] was over 100 µM. For the same compound, the GI50 [4] was over 100 µM, the TGI [4] was over 100 µM and the GI50 [5] was over 100 µM. The TGI [5] was over 100 µM, the GI50 [6] was 0.16 µM and the TGI [6] was over 100 µM. It also gave a GI50 [59] of over 100 µM, a TGI [59] of over 100 µM and a GI50 [9] of over 100 µM. The TGI [9] was over 100 µM, the GI50 [10] was over 100 µM and the TGI [10] was over 100 µM. It also gave a GI50 [11] of over 100 µM, a TGI [11] of over 100 µM and a GI50 [12] of 38.6 µM. The TGI [12] was over 100 µM, the GI50 [13] was over 100 µM and the TGI [13] was over 100 µM. The GI50 [14] was over 100 µM, the TGI [14] was over 100 µM and the GI50 [15] was over 100 µM. It also gave a TGI [15] of over 100 µM, a GI50 [16] of over 100 µM and a TGI [16] of over 100 µM. The GI50 [17] was 0.124 µM, the TGI [17] was over 100 µM and the GI50 [18] was 0.0879 µM. It also gave a TGI [18] of over 100 µM, a GI50 [19] of over 100 µM and a TGI [19] of over 100 µM. The GI50 [20] was over 100 µM, the TGI [20] was over 100 µM and the GI50 [21] was over 100 µM. The TGI [21] was over 100 µM, the GI50 [22] was 55.1 µM and the TGI [22] was over 100 µM. For the same compound, the GI50 [23] was over 100 µM, the TGI [23] was over 100 µM and the GI50 [24] was over 100 µM. For the same compound, the TGI [24] was over 100 µM, the GI50 [25] was 67.1 µM and the TGI [25] was over 100 µM. It also gave a GI50 [26] of over 100 µM, a TGI [26] of over 100 µM and a GI50 [27] of over 100 µM. It also gave a TGI [27] of over 100 µM, a GI50 [28] of 2.86 µM and a TGI [28] of over 100 µM. It also gave a GI50 [29] of over 100 µM, a TGI [29] of over 100 µM and a GI50 [30] of over 100 µM. It also gave a TGI [30] of over 100 µM, a GI50 [31] of over 100 µM and a TGI [31] of over 100 µM. For the same compound, the GI50 [32] was over 100 µM, the TGI [32] was over 100 µM and the GI50 [33] was 4.36 µM. For the same compound, the TGI [33] was over 100 µM, the GI50 [34] was 0.0446 µM and the TGI [34] was 0.573 µM. It also gave a GI50 [35] of 3.51 µM, a TGI [35] of over 100 µM and a GI50 [36] of over 100 µM. It also gave a TGI [36] of over 100 µM, a GI50 [37] of 0.439 µM and a TGI [37] of over 100 µM. For the same compound, the GI50 [38] was over 100 µM, the TGI [38] was over 100 µM and the GI50 [39] was over 100 µM. The TGI [39] was over 100 µM, the GI50 [40] was over 100 µM and the TGI [40] was over 100 µM. For the same compound, the GI50 [41] was 0.111 µM, the TGI [41] was over 100 µM and the GI50 [42] was over 100 µM. It also gave a TGI [42] of over 100 µM, a GI50 [43] of over 100 µM and a TGI [43] of over 100 µM. For the same compound, the GI50 [44] was 0.657 µM, the TGI [44] was over 100 µM and the GI50 [45] was over 100 µM. The TGI [45] was over 100 µM, the GI50 [46] was over 100 µM and the TGI [46] was over 100 µM. For the same compound, the GI50 [47] was 0.0145 µM, the TGI [47] was over 100 µM and the GI50 [48] was over 100 µM. The TGI [48] was over 100 µM, the GI50 [49] was over 100 µM and the TGI [49] was over 100 µM. It also gave a GI50 [51] of 0.413 µM, a TGI [51] of over 100 µM and a GI50 [52] of over 100 µM. The TGI [52] was over 100 µM, the GI50 [53] was over 100 µM and the TGI [53] was over 100 µM. For the same compound, the GI50 [54] was over 100 µM, the TGI [54] was over 100 µM and the GI50 [55] was over 100 µM. For the same compound, the TGI [55] was over 100 µM, the GI50 [56] was over 100 µM and the TGI [56] was over 100 µM. For the same compound, the GI50 [57] was over 100 µM, the TGI [57] was over 100 µM and the GI50 [58] was over 100 µM. For the same compound, the TGI [58] was over 100 µM.
